Consider 8 compounds from patent US8846656B2, “Tetrahydropyrido-pyridine and tetrahydropyrido-pyrimidine compounds and use thereof as C5a receptor modulators” (Novartis AG, priority 2011, dated 2014).

One data set can be described thus: physchem. Particulars: thermodynamic from solid, 24 hr Equilibrium Solubility.
The next data set deals with human C5aR (Homo sapiens (Human), UniProt P21730). Put plainly: FLIPR assay: inhibition of C5a-mediated calcium mobilization. In kind it is cell-based. As to conditions: stable cell line over expressing human C5aR & Gα15, human C5a at EC50 (0.1-0.25 nM). A digest of the protocol:
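Stable cell line overexpressing human C5aR with Gα15, measured on FLIPR Tetra. Cells loaded 1 h at 37° C with calcium 5 dye and 2.5 mM probenecid in HBSS/20 mM HEPES/0.1% BSA. Compounds preincubated 30 minutes at room temperature in 1% DMSO before C5a.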
A general note: A change in cytosolic calcium serves as a functional read-out for many receptors and channels.

A further data set relates to CD11b. Put plainly: Human whole blood CD11b up-regulation assay. As to conditions: Homo sapiens, 2 nM human C5a, CD15+ granulocytes, read-out: hCD11b IC50. The class given is cell-based. An outline of the steps: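 Heparinized human whole blood (used within 2 h) preincubated 10 min at room temperature with compound in 1% DMSO, then stimulated with 2 nM human C5a for 15 min. After anti-CD15/anti-CD11b staining on ice and RBC lysis, CD11b median fluorescence on 10,000 CD15+ granulocytes measured by flow cytometry.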

Where only a bound is given, the exact number is not on record here.

human C5aR, sequence (P21730 whole entry): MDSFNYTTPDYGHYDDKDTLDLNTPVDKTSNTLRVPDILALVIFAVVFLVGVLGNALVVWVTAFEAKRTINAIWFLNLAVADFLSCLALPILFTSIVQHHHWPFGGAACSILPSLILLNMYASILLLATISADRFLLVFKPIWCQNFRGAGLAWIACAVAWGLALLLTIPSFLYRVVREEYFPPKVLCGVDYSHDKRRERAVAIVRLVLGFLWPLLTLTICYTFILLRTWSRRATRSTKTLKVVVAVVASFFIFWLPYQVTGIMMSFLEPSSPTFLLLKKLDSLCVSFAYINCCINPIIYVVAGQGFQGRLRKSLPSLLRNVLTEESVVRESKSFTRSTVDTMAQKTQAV

As a reminder, the solubility (thermodynamic) is solubility found after equilibrating the solid with the medium. By IC50 is commonly meant the point on the concentration scale where inhibition reaches its midpoint. Take `CO[C@H]1C[C@H]2CC[C@@H](C1)N2c1nc(-c2c(C)ccc3[nH]nc(C)c23)nc2c1CN(c1cc(C(C)C)ccc1C)CC2` [Example 19-F, 2-(3,5-Dimethyl-1H-indazol-4-yl)-6-(5-isopropyl-2-methylphenyl)-4-((3-endo)-3-methoxy-8-azabicyclo[3.2.1]octan-8-yl)-5,6,7,8-tetrahydropyrido[4,3-d]pyrimidine]: the solubility (thermodynamic) at 24 h in the data set “physchem” (oil or lipid) was more than 26500 µg/mL; in the data set “physchem” (pH 1, simulated gastric fluid) it was less than 0.5 µg/mL; in the data set “physchem” (pH 4.5, aqueous buffer) it was less than 0.5 µg/mL; in the data set “physchem” (pH 5.5, fessif), less than 0.5 µg/mL; in the data set “physchem” (pH 6.5, fassif) it was less than 0.5 µg/mL; in “physchem” (pH 6.8, aqueous buffer), less than 0.5 µg/mL. The thermodynamic solubility at 24 h in “physchem” (simulated gastric fluid) and in the data set “physchem” (water) was less than 0.5 µg/mL throughout. Moreover, the IC50 at human C5aR was determined as 4 nM; with CD11b it was 13 nM.
Regarding `CCOC1CN(c2nc(-c3c(C)ccc4[nH]nc(C)c34)nc3c2CN(c2c(Cl)c(C4CC4)nn2C)CC3)C1` [Example 68-B, 6-(4-Chloro-3-cyclopropyl-1-methyl-1H-pyrazol-5-yl)-2-(3,5-dimethyl-1H-indazol-4-yl)-4-(3-ethoxyazetidin-1-yl)-5,6,7,8-tetrahydropyrido[4,3-d]pyrimidine], the figures for the half-inhibitory concentration (IC50) on human C5aR and in the data set with CD11b were 2 nM and 17 nM, respectively.
Take `Cc1ccc2[nH]nc(C)c2c1-c1nc2c(c(N3CC[C@@H](N(C)C)C3)n1)CN(c1c(Cl)c(C3CC3)nn1C)CC2` [Example 68-C, (R)-1-(6-(4-chloro-3-cyclopropyl-1-methyl-1H-pyrazol-5-yll)-2-(3,5-dimethyl-1H-indazol-4-yl)-5,6,7,8-tetrahydropyrido[4,3-d]pyrimidin-4-yl)-N,N-dimethylpyrrolidin-3-amine]: the IC50 on human C5aR came to 16 nM; with CD11b it was 69 nM.
Take `Cc1ccc2[nH]nc(C)c2c1-c1nc2c(c(N3CC(N(C)C)C3)n1)CN(c1c(Cl)c(C3CC3)nn1C)CC2` [Example 69-J, 1-(6-(4-chloro-3-cyclopropyl-1-methyl-1H-pyrazol-5-yl)-2-(3,5-dimethyl-1H-indazol-4-yl)-5,6,7,8-tetrahydropyrido[4,3-d]pyrimidin-4-yl)-N,N-dimethylazetidin-3-amine]: the IC50 at human C5aR came to 67 nM; in the data set on CD11b, 112 nM.
On the same counts, the results for `CCn1nc(C2CC2)c(Cl)c1N1CCc2nc(-c3c(C)ccc4[nH]nc(C)c34)nc(N3CCOC[C@H]3C)c2C1` [Example 70-G, (R)-4-(6-(4-Chloro-3-cyclopropyl-1-ethyl-1H-pyrazol-5-yl)-2-(3,5-dimethyl-1H-indazol-4-yl)-5,6,7,8-tetrahydropyrido[4,3-d]pyrimidin-4-yl)-3-methylmorpholine] are 9 nM and 19 nM.
Taken in the same sequence, the figures for `Cc1ccc2[nH]nc(C)c2c1-c1nc2c(c(N3CCOC[C@H]3C)n1)CN(c1c(Cl)c(C3CC3)nn1C)CC2` [Example 70-J] were 12 nM and 39 nM.
On the same counts, the results for `CCn1nc(C2CC2)c(Cl)c1N1CCc2nc(-c3c(C)ccc4[nH]nc(C)c34)nc(N3CC(N(C)C)C3)c2C1` [Example 70-K, 1-(6-(4-chloro-3-cyclopropyl-1-ethyl-1H-pyrazol-5-yl)-2-(3,5-dimethyl-1H-indazol-4-yl)-5,6,7,8-tetrahydropyrido[4,3-d]pyrimidin-4-yl)-N,N-dimethylazetidin-3-amine] are 20 nM and 37 nM.
As to `CCn1nc(C2CC2)c(F)c1N1CCc2nc(-c3c(C)ccc4[nH]nc(C)c34)nc(N3CC[C@@H](OC)C(C)(C)C3)c2C1` [Example 71-B, (R)-6-(3-Cyclopropyl-1-ethyl-4-fluoro-1H-pyrazol-5-yl)-2-(3,5-dimethyl-1H-indazol-4-yl)-4-(4-methoxy-3,3-dimethylpiperidin-1-yl)-5,6,7,8-tetrahydropyrido[4,3-d]pyrimidine], the IC50 on human C5aR came out at 2 nM; in the data set with CD11b it was 10 nM.
